The source of these data is patent publication US20180057467A1, “NOVEL TRIAZOLE DERIVATIVES” (BAYER CROPSCIENCE AKTIENGESELLSCHAFT, priority 2015, published 2018).

Marks after values point to notes of the source that are not given here.

The first data set is described as follows: LogP by HPLC on reversed phase columns (EEC directive 79/831 Annex V.A8). Type of data set: physicochemical.
Settings: not given
The method, then:
[table] If more than one Log P value is available within the same method, all the values are given and separated by “+”. […] Lambda-max-values were determined using UV-spectra from 200 nm to 400 nm and the peak values of the chromatographic signals.
Broadly, the LogP is the decadic logarithm of the partition coefficient of the neutral form, usually between octanol and water. As for `OC(Cn1cncn1)(c1ccc(F)cc1F)C1(Oc2c(F)cc(F)cc2F)CC1` (stereo not shown) [Example I-02, 1-(2,4-difluorophenyl)-2-(1H-1,2,4-triazol-1-yl)-1-[1-(2,4,6-trifluorophenoxy)cyclopropyl]ethanol], the LogP is 3.10^[b].
Consider `CC(=O)OC(Cn1cncn1)(c1ccc(F)cc1F)C1(Oc2c(F)cc(F)cc2F)CC1` (stereo not shown) [Example I-04, 1-(2,4-difluorophenyl)-2-(1H-1,2,4-triazol-1-yl)-1-[1-(2,4,6-trifluorophenoxy)cyclopropyl]ethyl acetate], for which the log partition coefficient (LogP) was 3.29^[b].

The data set is the same for the next values; noted with them: LogP.
For the molecule `OC(Cn1cncn1)(c1ccc(F)cc1F)C1(Oc2c(F)cc(F)cc2F)CC1` (stereo not shown) [Example I-02, 1-(2,4-difluorophenyl)-2-(1H-1,2,4-triazol-1-yl)-1-[1-(2,4,6-trifluorophenoxy)cyclopropyl]ethanol], the chromatographic logP was 3.11.
The same measure, in the same setting: with `CC(=O)OC(Cn1cncn1)(c1ccc(F)cc1F)C1(Oc2c(F)cc(F)cc2F)CC1` (stereo not shown) [Example I-04, 1-(2,4-difluorophenyl)-2-(1H-1,2,4-triazol-1-yl)-1-[1-(2,4,6-trifluorophenoxy)cyclopropyl]ethyl acetate] the figure was 3.32.

Still in this data set, the particulars now being: method [a]: LC-UV, acidic range, 0.1% formic acid in water and acetonitrile as eluent.
With `Fc1ccc(C2(C3(Oc4c(F)ccc(Cl)c4F)CC3)CO2)c(F)c1` (racemic) [Example V-06], the LogP is 4.65^[a].
Regarding `O=C(c1ccc(F)cc1F)C1(Oc2cc(F)c(Br)c(F)c2)CC1` [IV-19], the lipophilicity (LogP) is 4.54^[a].
Take `Fc1cc(Cl)ccc1C1(C2(Oc3c(F)cc(Cl)cc3F)CC2)CO1` (stereo not shown) [Example V-14]: the LogP was 5.23^[a].
On to `OC(Cn1cncn1)(c1ccc(F)cc1F)C1(Oc2ccc(F)c(F)c2F)CC1` (racemic) [Example I-27], for which the log partition coefficient (LogP) is 3.30^[a].
As for `OC(Cn1cncn1)(c1ccc(F)cc1F)C1(Oc2cc(F)c(F)c(F)c2)CC1` (racemic) [Example I-05], the LogP is 3.44^[a].
In the case of `O=C(c1ccc(F)cc1F)C1(Oc2ccc(F)c(F)c2F)CC1` [IV-17], the LogP is 4.01^[a].
On to `Fc1ccc(C2(C3(Oc4cc(F)c(F)c(F)c4)CC3)CO2)c(F)c1` (racemic) [Example V-04], for which the log partition coefficient (LogP) was 4.64^[a].
Take `Fc1cc(F)c(OC2(C3(c4ccc(Cl)cc4F)CO3)CC2)c(F)c1` (stereo not shown) [Example V-15]: the LogP is 4.72^[a].
For `OC(Cn1cncn1)(c1ccc(F)cc1F)C1(Oc2c(Cl)cc(C(F)(F)F)cc2Cl)CC1` (racemic) [Example I-10], the lipophilicity (LogP) is 4.46^[a].
Turning to `O=C(c1ccc(F)cc1F)C1(Oc2cc(F)c(F)cc2F)CC1` [IV-18], the LogP was 3.94^[a].
Take `OC(Cn1cncn1)(c1ccc(F)cc1F)C1(Oc2c(F)ccc(Cl)c2F)CC1` (racemic) [Example I-08]: the LogP was 3.39^[a].
The same measure, in the same setting: the value for `O=C(c1ccc(Cl)cc1F)C1(Oc2c(F)cc(Cl)cc2F)CC1` [IV-16] was 5.03^[a]; that for `Fc1ccc(C2(C3(Oc4c(Cl)cc(F)cc4Cl)CC3)CO2)c(F)c1` (stereo not shown) [Example V-12] was 4.98^[a]; that for `COC(Cn1cncn1)(c1ccc(F)cc1F)C1(Oc2c(F)ccc(F)c2F)CC1` (racemic) [Example I-14] was 3.50^[a].
With `Fc1ccc(C2(C3(Oc4c(F)cc(Br)cc4F)CC3)CO2)c(F)c1` (racemic) [Example V-03], the log partition coefficient (LogP) was 4.86.
Still for that read-out and setting: the value for `O=C(c1ccc(F)cc1F)C1(Oc2c(Cl)cc(Br)cc2Cl)CC1` [IV-7] was 5.01^[a]; that for `COC(Cn1cncn1)(c1ccc(Cl)cc1F)C1(Oc2c(F)cc(F)cc2F)CC1` (racemic) [Example I-26] was 3.97^[a]; that for `O=C(c1ccc(F)cc1F)C1(Oc2c(Cl)cc(SC(F)(F)F)cc2Cl)CC1` [IV-13] was 5.85^[a].
On the same count and under the same terms, with `Fc1ccc(C2(C3(Oc4ccc(F)c(F)c4F)CC3)CO2)c(F)c1` (stereo not shown) [Example V-16] the figure was 4.28^[a].
The same measure, in the same setting: with `Fc1ccc(C2(C3(Oc4cc(F)c(F)cc4F)CC3)CO2)c(F)c1` (stereo not shown) [Example V-17] the figure was 4.10^[a]; with `O=C(c1ccc(F)cc1F)C1(Oc2cc(F)c(F)c(F)c2)CC1` [IV-10], 4.20^[a]; with `Fc1ccc(C2(C3(Oc4cc(F)c(Br)c(F)c4)CC3)CO2)c(F)c1` (stereo not shown) [Example V-18], 4.86^[a].
As to `OC(Cn1cncn1)(c1ccc(Cl)cc1F)C1(Oc2c(F)cc(Cl)cc2F)CC1` (racemic) [Example I-23], the lipophilicity (LogP) is 4.01^[a].
Turning to `COC(Cn1cncn1)(c1ccc(F)cc1F)C1(Oc2c(F)ccc(Cl)c2F)CC1` (racemic) [Example I-17], the lipophilicity (LogP) was 3.85^[a].
Same read-out and setting: with `Fc1ccc(C2(C3(Oc4c(Cl)ccc(Cl)c4Cl)CC3)CO2)c(F)c1` (racemic) [Example V-09] the figure was 5.27^[a]; with `Fc1ccc(C2(C3(Oc4c(Cl)cc(Br)cc4Cl)CC3)CO2)c(F)c1` (racemic) [Example V-08], 5.72^[a].
Turning to `COC(Cn1cncn1)(c1ccc(F)cc1F)C1(Oc2c(Cl)cc(OC(F)(F)F)cc2Cl)CC1` (racemic) [Example I-18], the LogP was 4.87^[a].
Turning to `OC(Cn1cncn1)(c1ccc(F)cc1F)C1(Oc2c(F)ccc(F)c2Cl)CC1` (racemic) [Example I-29], the LogP is 3.42^[a].
Still for that read-out and setting: the value for `OC(Cn1cncn1)(c1ccc(F)cc1F)C1(Oc2c(F)cc(Br)cc2F)CC1` (single isomer, unassigned) [Example I-21] was 3.63^[a]; that for `Fc1ccc(C2(C3(Oc4c(F)ccc(F)c4Cl)CC3)CO2)c(F)c1` (stereo not shown) [Example V-19] was 4.35^[a].
For the molecule `O=C(c1ccc(F)cc1F)C1(Oc2c(F)ccc(F)c2Cl)CC1` [IV-20], the LogP is 4.25^[a].
Regarding `OC(Cn1cncn1)(c1ccc(F)cc1F)C1(Oc2c(Cl)cc(OC(F)(F)F)cc2Cl)CC1` (racemic) [Example I-09], the LogP is 4.62^[a].
With `OC(Cn1cncn1)(c1ccc(F)cc1F)C1(Oc2c(F)cc(Cl)cc2F)CC1` (single isomer, unassigned) [Example I-20], the log partition coefficient (LogP) is 3.55^[a].
Still for that read-out and setting: with `OC(Cn1cncn1)(c1ccc(F)cc1F)C1(Oc2c(F)cc(Br)cc2F)CC1` (single isomer, unassigned) [Example I-22] the figure was 3.63^[a]; with `O=C(c1ccc(F)cc1F)C1(Oc2c(F)cc(Cl)cc2F)CC1` [IV-2], 4.44^[a].
As to `O=C(c1ccc(F)cc1F)C1(Oc2c(F)cc(Br)cc2F)CC1` [IV-3], the LogP was 4.54^[a].
On the same count and under the same terms, with `OC(Cn1cncn1)(c1ccc(Cl)cc1F)C1(Oc2c(F)cc(F)cc2F)CC1` (racemic) [Example I-24] the figure was 3.51^[a]; with `Fc1ccc(C2(C3(Oc4c(Cl)cc(SC(F)(F)F)cc4Cl)CC3)CO2)c(F)c1` (stereo not shown) [Example V-13], 6.07^[a].
On to `O=C(c1ccc(F)cc1F)C1(Oc2c(Cl)cc(C(F)(F)F)cc2Cl)CC1` [IV-11], for which the LogP is 5.25^[a].
As for `O=C(c1ccc(F)cc1F)C1(Oc2c(Cl)cc(F)cc2Cl)CC1` [IV-5], the log partition coefficient (LogP) is 4.76^[a].
Same read-out and setting: the value for `O=C(c1ccc(Cl)cc1F)C1(Oc2c(F)cc(F)cc2F)CC1` [IV-15] was 4.49^[a]; that for `O=C(c1ccc(F)cc1F)C1(Oc2c(F)ccc(F)c2F)CC1` [IV-6] was 3.99^[a].
For `OC(Cn1cncn1)(c1ccc(F)cc1F)C1(Oc2cc(F)c(F)cc2F)CC1` (racemic) [Example I-28], the LogP is 3.17^[a].
With `OC(Cn1cncn1)(c1ccc(F)cc1F)C1(Oc2cc(F)c(Br)c(F)c2)CC1` (racemic) [Example I-30], the LogP was 3.85^[a].
Still for that read-out and setting: with `Fc1ccc(C2(C3(Oc4c(Cl)cc(Cl)cc4Cl)CC3)CO2)c(F)c1` (racemic) [Example V-07] the figure was 5.56^[a]; with `OC(Cn1cncn1)(c1ccc(F)cc1F)C1(Oc2c(Cl)cc(Br)cc2Cl)CC1` (racemic) [Example I-12], 4.62^[a].
In the case of `OC(Cn1cncn1)(c1ccc(F)cc1F)C1(Oc2c(F)cc(Cl)cc2F)CC1` (single isomer, unassigned) [Example I-19], the LogP was 3.55^[a].
In the case of `OC(Cn1cncn1)(c1ccc(F)cc1F)C1(Oc2c(F)ccc(F)c2F)CC1` (racemic) [Example I-13], the lipophilicity (LogP) is 3.14^[a].
As to `OC(Cn1cncn1)(c1ccc(F)cc1F)C1(Oc2c(Cl)cc(SC(F)(F)F)cc2Cl)CC1` (racemic) [Example I-11], the lipophilicity (LogP) is 4.97^[a].
In the case of `OC(Cn1cncn1)(c1ccc(F)cc1F)C1(Oc2c(Cl)cc(Cl)cc2Cl)CC1` (racemic) [Example I-07], the LogP is 4.49^[a].
As to `O=C(c1ccc(F)cc1F)C1(Oc2c(Cl)cc(Cl)cc2Cl)CC1` [IV-4], the lipophilicity (LogP) is 5.34^[a].
For `OC(Cn1cncn1)(c1ccc(F)cc1F)C1(Oc2c(Cl)ccc(Cl)c2Cl)CC1` (racemic) [Example I-06], the LogP was 4.19^[a].
As to `N#Cc1cc(Cl)c(OC2(C(=O)c3ccc(F)cc3F)CC2)c(Cl)c1` [IV-14], the LogP is 4.15^[a].
Consider `O=C(c1ccc(Cl)cc1F)C1(Oc2c(F)cc(Br)cc2F)CC1` [IV-21], for which the log partition coefficient (LogP) is 5.05^[a].
On to `Fc1ccc(C2(C3(Oc4c(Cl)cc(OC(F)(F)F)cc4Cl)CC3)CO2)c(F)c1` (racemic) [Example V-05], for which the LogP was 5.62^[a].
Same read-out and setting: the value for `O=C(c1ccc(F)cc1F)C1(Oc2c(F)ccc(Cl)c2F)CC1` [IV-9] was 4.27^[a].
For the molecule `Fc1ccc(C2(C3(Oc4c(F)ccc(F)c4F)CC3)CO2)c(F)c1` (racemic) [Example V-10], the LogP was 4.20^[a].
Turning to `O=C(c1ccc(F)cc1F)C1(Oc2c(Cl)cc(OC(F)(F)F)cc2Cl)CC1` [IV-12], the LogP is 5.39^[a].
`OC(Cn1cncn1)(c1ccc(F)cc1F)C1(Oc2c(Cl)cc(F)cc2Cl)CC1` (racemic) [Example I-16]: the LogP is 3.94^[a].

Staying with this data set, now noted: method [b]: LC-UV, neutral range, 0.001 molar ammonium acetate solution in water and acetonitrile as eluent.
In the case of `Fc1ccc(C2(C3(Oc4c(F)cc(Br)cc4F)CC3)CO2)c(F)c1` (racemic) [Example V-03], the LogP turned out to be 4.87.

Staying with this data set, now noted: reversed phase HPLC column, method [a]: LC-UV, acidic range, 0.1% formic acid in water and acetonitrile as eluent; read-out: LogP.
Take `O=C(c1ccc(F)cc1F)C1(Oc2c(F)cc(F)cc2F)CC1` [IV-1, (2,4-difluorophenyl)[1-(2,4,6-trifluorophenoxy)cyclopropyl]methanone]: the chromatographic logP is 3.96.
Same read-out and setting: the value for `Fc1ccc(C2(C3(Oc4c(F)cc(F)cc4F)CC3)CO2)c(F)c1` (stereo not shown) [Example V-01, 2-(2,4-difluorophenyl)-2-[1-(2,4,6-trifluorophenoxy)cyclopropyl]oxirane] was 4.26.

Staying with this data set, now noted: reversed phase HPLC column, method [b]: LC-UV, neutral range, 0.001 molar ammonium acetate solution in water and acetonitrile as eluent; read-out: LogP.
On to `Fc1ccc(C2(C3(Oc4c(F)cc(F)cc4F)CC3)CO2)c(F)c1` (stereo not shown) [Example V-01, 2-(2,4-difluorophenyl)-2-[1-(2,4,6-trifluorophenoxy)cyclopropyl]oxirane], for which the chromatographic logP was determined as 4.26.
